In patent publication US5763477A, “Taxane derivatives from 14-β-hydroxy-10 deacetylbaccatin III” (Dr. Reddy's Research Foundation, priority 1994, dated 1998):
Where two headings read alike, the source gives them in different places.

How the values were obtained:
Type in all cases: cell-based
SR = test: In vitro anti-cancer activity, leukemia, cell line SR; details: Homo sapiens
Text: (§1) In particular, these compounds are related to taxol, the recently FDA approved anticancer drug, and its various analogues having an additional hydroxyl group at C-14 position of the taxane skeleton. […] Selectivity and sensitivity were particularly good at 0.01 to 1 μm concentrations at G150 level (concentrations of the agent in the assay that produced 50 0 growth inhibition).
(§2) IN VITRO ANTI-CANCER ACTIVITY DATA OF 7,10-DIMETHYLACETONIDO 14-HYDROXY TAXOL (Compound 23) ON LEUKEMIA, OVARIAN AND BREAST CANCER CELL LINES IN COMPARISON TO TAXOL
(§3) All the values are given in μm concentrations:
(§4) The notations GI50, TGI refer to the concentrations of the agent in the assay that produced 50% growth inhibition, total growth inhibition respectively.

HL60 = test: In vitro anti-cancer activity, leukemia, cell line HL60; details: Homo sapiens, HL-60
Text: as §1, §2, §3, §4

K-562 = test: In vitro anti-cancer activity, leukemia, cell line K-562; details: Homo sapiens, K562
Text: as §1, §2, §3, §4

Molt-4 = test: In vitro anti-cancer activity, leukemia, cell line Molt-4; details: Homo sapiens
Text: as §1, §2, §3, §4

RPMI-8226 = test: In vitro anti-cancer activity, leukemia, cell line RPMI-8226; details: Homo sapiens
Text: as §1, §2, §3, §4

HCT 116 = test: In vitro anti-cancer activity, colon cancer, cell line HCT 116; details: Homo sapiens
HCT 15 = test: In vitro anti-cancer activity, colon cancer, cell line HCT 15; details: Homo sapiens
HT-29 = test: In vitro anti-cancer activity, colon cancer, cell line HT-29; details: Homo sapiens
KM12 = test: In vitro anti-cancer activity, colon cancer, cell line KM12; details: Homo sapiens
SW 620 = test: In vitro anti-cancer activity, colon cancer, cell line SW 620; details: Homo sapiens
Text: as §1, §2, §3, §4

IGR-OV1 = test: In vitro anti-cancer activity, ovarian cancer, cell line IGR-OV1; details: Homo sapiens, IGROV-1
Text: as §1, §2, §3, §4

OVCAR3 = test: In vitro anti-cancer activity, ovarian cancer, cell line OVCAR3; details: Homo sapiens, OVCAR-3
Text: as §1, §2, §3, §4

OVCAR4 = test: In vitro anti-cancer activity, ovarian cancer, cell line OVCAR4; details: Homo sapiens, OVCAR-4
Text: as §1, §2, §3, §4

OVCAR5 = test: In vitro anti-cancer activity, ovarian cancer, cell line OVCAR5; details: Homo sapiens, OVCAR-5
Text: as §1, §2, §3, §4

MCF7 = test: In vitro anti-cancer activity, breast cancer, cell line MCF7; details: Homo sapiens
Text: as §1, §2, §3, §4

MDA-MB 231 = test: In vitro anti-cancer activity, breast cancer, cell line MDA-MB 231; details: Homo sapiens
Text: as §1, §2, §3, §4

H5578T = test: In vitro anti-cancer activity, breast cancer, cell line H5578T
Text: as §1, §2, §3, §4

MDA-MB 435 = test: In vitro anti-cancer activity, breast cancer, cell line MDA-MB 435; details: Homo sapiens
Text: as §1, §2, §3, §4

BT 549 = test: In vitro anti-cancer activity, breast cancer, cell line BT 549; details: Homo sapiens
Text: as §1, §2, §3, §4

MDA-N = test: In vitro anti-cancer activity, breast cancer, cell line MDA-N; details: Homo sapiens
Text: as §1, §2, §3, §4

T47D = test: In vitro anti-cancer activity, breast cancer, cell line T47D; details: Homo sapiens
Text: as §1, §2, §3, §4

[1] = system: leukemia, colon cancer and ovarian cancer cell lines; test: Selectivity and sensitivity (National Cancer Institute protocols); details: towards leukemia
Text: as §1

[2] = system: three leukemia cell lines; test: Activity on three leukemia cell lines (National Cancer Institute protocols)
Text: as §1

[3] = system: three ovarian cancer cell lines; test: Activity on three ovarian cancer cell lines (National Cancer Institute protocols)
Text: as §1

[4] = breast cancer, read-out: TGI (total growth inhibition)
[5] = read-out: TGI (total growth inhibition)

`CC(=O)O[C@@]12CO[C@@H]1C[C@@H]1OC(C)(C)O[C@H]3C(=O)[C@@]1(C)[C@@H]2[C@H](OC(=O)c1ccccc1)[C@]1(O)[C@@H](O)[C@H](OC(=O)[C@H](O)[C@@H](NC(=O)c2ccccc2)c2ccccc2)C(C)=C3C1(C)C` [Compound 23, 7,10-dimethyl acetonido-14-hydroxy taxol] showed a GI50 (SR; leukemia, read-out: GI50) of 84 nM, a GI50 (HL60; leukemia, HL60, read-out: GI50) of 44 nM and a GI50 (K-562; leukemia, K-562, read-out: GI50) of 247 nM. For the same compound, the GI50 (Molt-4; leukemia, Molt-4, read-out: GI50) was 267 nM, the GI50 (RPMI-8226; leukemia, read-out: GI50) was 57 nM and the GI50 (HCT 116; colon cancer, HCT 116, read-out: GI50) was 228 nM. The GI50 (HCT 15; colon cancer, HCT 15, read-out: GI50) was 2140 nM, the GI50 (HT-29; colon cancer, read-out: GI50) was 79 nM and the GI50 (KM12; colon cancer, read-out: GI50) was 77 nM. It also gave a GI50 (SW 620; colon cancer, SW 620, read-out: GI50) of 131 nM, a GI50 (IGR-OV1; ovarian cancer, IGR-OV1, read-out: GI50) of 66 nM and a GI50 (OVCAR3; ovarian cancer, OVCAR3, read-out: GI50) of 131 nM. It also gave a GI50 (OVCAR4; ovarian cancer, OVCAR4, read-out: GI50) of 1860 nM, a GI50 (OVCAR5; ovarian cancer, OVCAR5, read-out: GI50) of 770 nM and a GI50 (MCF7; breast cancer, MCF7, read-out: GI50) of 70 nM. For the same compound, the IC (total growth inhibition) (MCF7; breast cancer, MCF7, read-out: TGI (total growth inhibition)) was over 30 µM, the GI50 (MDA-MB 231; breast cancer, MDA-MB 231, read-out: GI50) was 500 nM and the IC (total growth inhibition) (MDA-MB 231; breast cancer, MDA-MB 231, read-out: TGI (total growth inhibition)) was over 30 µM. The GI50 (H5578T; breast cancer, H5578T, read-out: GI50) was 137 nM, the IC (total growth inhibition) (H5578T; breast cancer, H5578T, read-out: TGI (total growth inhibition)) was 0.89 µM and the GI50 (MDA-MB 435; breast cancer, MDA-MB 435, read-out: GI50) was 30 nM. The IC (total growth inhibition) (MDA-MB 435; breast cancer, MDA-MB 435, read-out: TGI (total growth inhibition)) was 0.12 µM, the GI50 (BT 549; breast cancer, BT 549, read-out: GI50) was 443 nM and the IC (total growth inhibition) (BT 549; breast cancer, BT 549, read-out: TGI (total growth inhibition)) was 11.2 µM. It also gave a GI50 (MDA-N; breast cancer, read-out: GI50) of 33 nM, an IC (total growth inhibition) (MDA-N; [4]) of 0.12 µM and a GI50 (T47D; breast cancer, read-out: GI50) of 158 nM. For the same compound, the IC (total growth inhibition) (T47D; [4]) was 17.7 µM, the selectivity and sensitivity [1] was “good selectivity and sensitivity” and the IC50 [2] was under 100 nM. The IC50 [3] was under 1000 nM.

With `CC(=O)O[C@H]1C(=O)[C@@]2(C)[C@H]([C@H](OC(=O)c3ccccc3)[C@]3(O)C[C@H](OC(=O)[C@H](O)[C@@H](NC(=O)c4ccccc4)c4ccccc4)C(C)=C1C3(C)C)[C@]1(OC(C)=O)CO[C@@H]1C[C@@H]2O` [Taxol, reference compound] the GI50 (SR) was 33 nM, the GI50 (HL60) was 10 nM and the GI50 (K-562) was 15 nM. The GI50 (Molt-4; MOLT-4) was 53 nM, the GI50 (RPMI-8226) was 6 nM and the GI50 (HCT 116; HCT-116) was 19 nM. For the same compound, the GI50 (HCT 15; HCT-15) was 570 nM, the GI50 (HT-29) was 8 nM and the GI50 (KM12) was 16 nM. For the same compound, the GI50 (SW 620; SW-620) was 20 nM, the GI50 (IGR-OV1) was 28 nM and the GI50 (OVCAR3) was 22 nM. The GI50 (OVCAR4) was 380 nM, the GI50 (OVCAR5) was 75 nM and the GI50 (MCF7; MCF7) was 9 nM. The IC (total growth inhibition) (MCF7; MCF7, read-out: TGI (total growth inhibition)) was 1 µM, the GI50 (MDA-MB 231; MDA-MB-231) was 100 nM and the IC (total growth inhibition) (MDA-MB 231; MDA-MB-231, read-out: TGI (total growth inhibition)) was 0.67 µM. The GI50 (H5578T) was 12 nM, the TGI (total growth inhibition) (H5578T; [5]) was 150 nM and the GI50 (MDA-MB 435; MDA-MB-435) was 6 nM. It also gave an IC (total growth inhibition) (MDA-MB 435; MDA-MB-435, read-out: TGI (total growth inhibition)) of 0.025 µM, a GI50 (BT 549; BT-549) of 60 nM and an IC (total growth inhibition) (BT 549; BT-549, read-out: TGI (total growth inhibition)) of 0.7 µM. The GI50 (MDA-N) was 4 nM, the TGI (total growth inhibition concentration) (MDA-N; [5]) was 15 nM and the GI50 (T47D) was 109 nM. The TGI (total growth inhibition) (T47D; [5]) was 1000 nM.
